The test concerns the target RAC-alpha serine/threonine-protein kinase (Homo sapiens, UniProt P31749). As to the kind of experiment: Inhibition of PI3K-mediated Akt phosphorylation at Ser 473 in human U87MG cells after 2 hrs by alphascreen assay.

The structures appear in SMILES notation.

Sequence of RAC-alpha serine/threonine-protein kinase (P31749 whole entry): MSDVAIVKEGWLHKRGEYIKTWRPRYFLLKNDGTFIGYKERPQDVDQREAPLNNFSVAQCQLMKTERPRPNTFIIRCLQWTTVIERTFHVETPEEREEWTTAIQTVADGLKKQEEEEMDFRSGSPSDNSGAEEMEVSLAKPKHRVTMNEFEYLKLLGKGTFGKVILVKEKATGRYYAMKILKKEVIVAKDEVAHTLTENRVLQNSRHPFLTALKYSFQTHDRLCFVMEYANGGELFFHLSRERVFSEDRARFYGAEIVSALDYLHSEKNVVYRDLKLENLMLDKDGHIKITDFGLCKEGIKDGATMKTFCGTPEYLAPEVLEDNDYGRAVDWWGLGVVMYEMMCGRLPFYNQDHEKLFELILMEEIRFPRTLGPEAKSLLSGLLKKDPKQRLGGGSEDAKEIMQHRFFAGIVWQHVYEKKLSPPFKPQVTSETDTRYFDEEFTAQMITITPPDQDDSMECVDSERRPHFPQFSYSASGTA

With `O=S(=O)(Nc1cc(-c2ccc3nc[nH]c3c2)cnc1Cl)c1ccc(F)cc1`, the half-maximal inhibitory concentration (IC50) is greater than 12 µM.

As for `O=S(=O)(Nc1cc(-c2ccc3nccn3c2)cnc1Cl)c1ccc(F)cc1`, the IC50 was determined as 0.574 µM.

The compound `O=S(=O)(Nc1cc(-c2ccc3sncc3c2)cnc1Cl)c1ccc(F)cc1` yielded a concentration for half-maximal inhibition (IC50) greater than 12 µM.

`Nc1nc2ccc(-c3cnc(Cl)c(NS(=O)(=O)c4ccc(F)cc4)c3)cc2o1`: the midpoint of inhibition, the IC50, lay at 0.101 µM.

For `Nc1nc2ccc(-c3cnc(Cl)c(NS(=O)(=O)c4ccc(F)cc4)c3)cc2[nH]1`, the 50% inhibitory concentration (IC50) was greater than 12 µM.

`CC(=O)Nc1cn2cc(-c3cnc(Cl)c(NS(=O)(=O)c4ccc(F)cc4)c3)ccc2n1` returned a 50% inhibitory concentration (IC50) of 0.118 µM.

`Nc1cn2nc(-c3cnc(Cl)c(NS(=O)(=O)c4ccc(F)cc4)c3)ccc2n1` returned a concentration for half-maximal inhibition (IC50) of 0.415 µM.

In the case of `O=S(=O)(Nc1cc(-c2ccc3ncoc3c2)cnc1Cl)c1ccc(F)cc1`, the IC50 was greater than 12 µM.

The compound `Nc1cn2cc(-c3cnc(Cl)c(NS(=O)(=O)c4ccc(F)cc4)c3)ccc2n1` returned a half-maximal inhibitory concentration (IC50) greater than 12 µM.

Take `O=S(=O)(Nc1cc(-c2ccc3nncn3c2)cnc1Cl)c1ccc(F)cc1`: the IC50 was greater than 12 µM.

Compound `CC(=O)Nc1cn2nc(-c3cnc(Cl)c(NS(=O)(=O)c4ccc(F)cc4)c3)ccc2n1` returned an IC50 of 0.013 µM.

Compound `CC(=O)Nc1nc2ccc(-c3cnc(Cl)c(NS(=O)(=O)c4ccc(F)cc4)c3)cc2o1` registered an IC50 of 1.1 µM.

Take `CC(=O)Nc1nc2ccc(-c3cnc(Cl)c(NS(=O)(=O)c4ccc(F)cc4)c3)cc2[nH]1`: the IC50 is 0.335 µM.

For the origin of these results see BindingDB's records for doi:10.1021/jm2004442 (Amgen, 2011).
